According to patent US9920069B2, “Compounds for treatment of fluoroquinolone-resistant bacteria” (The Board of Trustees of the University of Illinois, priority 2014, dated 2018):
In brackets after ≈: the same amount, converted by molar mass. Where two headings read alike, the source gives them in different places.

Assays:
[1] = tested on: PA1586; assay: MIC, microdilution broth; assay type: cell-based, P. aeruginosa; settings: Pseudomonas aeruginosa
Experimental: (§1) E. coli MG1655 and the ΔAcrB strain were obtained from Prof. Cari Vanderpool at UIUC.
(§2) Susceptibility testing was performed in triplicate using the microdilution broth method as outlined by the Clinical and Laboratory Standards Institute CLSI^52. MH broth was used.

[2] = tested on: Enterococcus ATCC 29212; assay: organism not typed; assay type: cell-based, E. faecalis; settings: ATCC 29212, E. faecalis, gyrA WT, parC WT
[3] = tested on: Enterococcus ATCC 19433; assay: organism not typed; assay type: cell-based, E. faecalis; settings: ATCC 19433, E. faecalis; gyrA WT, parC WT; read-out: MIC
[4] = tested on: VRE harboring the S83I mutation (GyrA); assay: microbe, parasite or virus in culture; assay type: cell-based; settings: Enterococcus
[5] = tested on: MRSA clinical isolates; assay: Panel of MRSA clinical isolates (FIG. 2A); assay type: cell-based, S. aureus; settings: n=21, in words
[6] = biological target: T1, WT E. coli DNA gyrase (Escherichia coli, UniProt P0AES4); assay type: biochemical; settings: in words
T1 construct: His tag (pTrcHisA vector, purified on Ni-NTA); made in house; host or cells: E. coli One Shot BL21 Star (DE3)

[7] = tested on: high level CIP resistant strains of S. aureus ATCC 29213 (S84L GyrA); assay: microbe, parasite or virus in culture; assay type: cell-based; settings: Staphylococcus aureus, ATCC29213
[8] = in vivo; settings: female, C57BL/6, mouse, po
Experimental: As a prelude to exploring in vivo efficacy, the toxicity and pharmacokinetic profile of DNM and key derivatives was evaluated.
The animal studies (PK, in vivo toxicity and in vivo efficacy) were carried out in strict accordance with the recommendations in the Guide for the Care and Use of Laboratory Animals of the National Institutes of Health. […] In these studies, 10-12 week old female C57BL/6 mice purchased from Charles River were used. DNM, DNM-2, and DNM-3 were formulated as slurries at 8.3 mg mL^−1 in 25% Cremophor RH40/water (v/v). Before beginning the pharmacokinetic assessment, mice were first tested for their ability to tolerate the DNM, DNM-2, and DNM-3 at 50 mg kg^−1 (p.o.). […] . At specified time points, mice were sacrificed and blood was collected, centrifuged, and the serum was frozen at −80° C. until analysis. The proteins in a 50 μL aliquot of serum were precipitated by the addition of 50 μL of acetonitrile and the sample was centrifuged to remove the proteins. Serum concentrations of DNM, DNM-2, and DNM-3 were determined by HPLC. PK parameters were determined using GraphPad Prism Version 5.00 for Windows.

[9] = tested on: E. coli MG1655; assay: microbe, parasite or virus in culture; assay type: cell-based; settings: Escherichia coli, gyrA none, parC none
Experimental: as §1, §2

[10] = biological target: T2, human topoisomerase II (Homo sapiens, UniProt P11388); assay: Human topoisomerase decatenation assay; assay type: biochemical; settings: lowest inhibiting / highest without significant inhibition
T2 construct: purchased Inspiralis
Experimental: The decatenation assay was performed with the Human Topo II Decatenation Assay Kit (Inspiralis) according to the manufacturer's instructions with minor modifications. First, a master mix was made containing 2 μL 10× assay buffer (500 mM Tris.HCl, pH 7.5, 1250 mM NaCl, 100 mM MgCl2, 50 mM DTT, 1000 μg/mL albumin), 0.67 μL 30 mM ATP, 1.34 μL 0.1 ng/μL kDNA, and 14.3 μL of nuclease free water per sample is made. DMSO or 30× compound is added to a 0.5 mL Eppendorf tube (0.67 μL per tube). The master mix is then added to each tube (18.3 μL per tube). Finally, 1 U of human topoisomerase (1 μL of 1 U/μL stock) is added to each tube for a final volume of 20 μL. The tubes are then incubated at 37° C. for 30 min. Reactions are stopped by the addition of 20 μL of 24:1 chloroform:isoamyl alcohol and 20 μL of stop dye (40% sucrose, 1 mM EDTA, 100 mM TrisHCl pH 7.5, 0.5 μg/mL bromophenol blue). Samples were run on 1% agarose gels containing 0.5 μg/mL ethidium bromide for 1 h at 110V or until the dye front was approximately halfway down the gel. Gels were imaged on a Molecular Imager Gel Doc XR+ (Biorad).

[11] = tested on: Herring Sperm DNA; assay type: binding; settings: 30 min, pH 7.5
Experimental: FIG. 12. In vitro toxicity. A) Hemolysis assay. Human red blood cells were co-incubated with compound. After incubation for 2 h at 37° C., the supernatant was analyzed for hemolysis. Each compound was tested either at 160 μg mL^−1 or at the highest concentration which its solubility allowed. Concentrations (μg mL^−1) are indicated in parenthesis. The negative control is DMSO and the positive control is water. Data shown is from three independent replicates±SEM. B) Ethidium bromide (EtBr) intercalation assay. Compounds were incubated with Herring Sperm DNA, ethidium bromide, and compound of interest for 30 minutes. The solutions were then analyzed for ethidium bromide fluorescence. Any decrease in percentage fluorescence is indicative of compound intercalation. Doxorubicin (DOX) was used as a positive control.
These assays were performed as previously described (Bair et al. J. Am. Chem. Soc. 132, 5469-5478, (2010)). The ability of DNM-2 to intercalate into DNA was measured by an ethidium bromide displacement assay. Herring Sperm DNA (34 μg/mL final) was premixed with buffer containing ethidium bromide (50 mM Tris base, 100 mM NaCl, 1 mM EDTA, 5 μM EtBr, pH=7.5). 95 μL of this solution was added to a 96 well plate containing 5 μL of DMSO solutions of compounds. […] Fluorescence was then read on a Gemini microplate reader (Molecular Devices, excitation=545 nm, emission=595 nm).

[12] = In vivo toxicity assessment, 10 days; parameters: species or system BALB/c mice; settings: 50 mg kg^−1 oral once-a-day 10 days; in words
Experimental: Toxicity was assessed as previously described^56. Specifically, heparinized whole blood was collected for assessment of total white blood cells, neutrophils, lymphocytes, hematocrit, platelets, creatinine, blood urea, nitrogen, albumin, alanine aminotransferase, alkaline phosphatase, and total bilirubin. Mice were euthanized by overdosing with Ketamine/Xylazine, and heart, lung, kidney, liver, spleen, gastrointestinal tract and brain were collected for histopathology. Tissue samples were fixed 24 hours in 10% neutral buffered formalin, processed, and paraffin embedded, sectioned (5 μm thickness) and stained with hematoxylin and eosin. All slides were systematically evaluated by a single board certified veterinary anatomic pathologist (SL) for evidence of acute or chronic inflammation and toxicity. All lesions were characterized, recorded, and scored for severity (minimal=1, mild=2, moderate=3, and severe=4).

Row | SMILES | MIC [1] | MIC [2] | MIC ([2]; read-out: MIC) | MIC [3] | MIC [4] | sensitivity of MRSA clinical isolates [5] | inhibition of WT DNA gyrase [6] | MIC [7] | MTD [8] | MIC [9] | concentration inhibiting human topoisomerase II [10] | concentration without significant DNA intercalation [11] | hematological and non-hematological toxicity [12]
1 | Cc1cc(=O)n(C)c2c3c4c(cc12)c(C)cc(=O)n4CO3 [DNM, deoxynybomycin] | > 4 µg/mL | >1 µg/mL | > 1 µg/mL | > 1 µg/mL | 0.125 to 1 µg/mL (≈ 0.443 to 3.54 µM) | sensitive | poor inhibitors of WT DNA gyrase | 0.03 to 0.06 µg/mL (≈ 0.106 to 0.213 µM) | > 50 mg/kg |  |  |  | 
2 | CCn1c(=O)cc(C)c2cc3c(C)cc(=O)n4c3c(c21)OC4 [DNM-2] | > 24 µg/mL |  | 8 µg/mL (≈ 27 µM) | 8 µg/mL (≈ 27 µM) |  | sensitive | poor inhibitors of WT DNA gyrase | 0.06 to 0.12 µg/mL (≈ 0.202 to 0.405 µM) | > 50 mg/kg | > 24 µg/mL | > 30 µM | > 30 µM | No clinically significant evidence for myelosuppression, renal injury, or hepatic toxicity
